Test results: patent publication US9556153B1, “JAK1 inhibitors” (Eli Lilly and Company, priority 2015, dated 2017)

Columns and labels:
JAK2 = JAK2 (Homo sapiens, UniProt O60674); assay: Human whole blood assay: pSTAT5 (JAK2) in monocytes; type: cell-based; design: endogenous in cells; host or cells: human whole blood, CD4Low CD33Hi monocytes; settings: HWB, GM-CSF stimulated, CD4Low CD33Hi monocytes; n=3
From the text: Human Whole Blood Assays: Determination of pSTAT3 (JAK1) and pSTAT5 (JAK2) in Lymphocytes and Monocytes
Human whole blood (HWB) assays were developed and validated to determine the JAK1 and JAK2 selectivity of test compounds.
Dilute the test compounds, 10 points, (1:3) in DMSO 100% and a step down in PBS+0.1% BSA. Use tofacitinib as a reference compound in each plate, as well as a maximum signal (stimulated wells) and a minimum signal (no stimulated wells) in order to normalize data. Obtain a pool of HWB from 4 different healthy donors. Plate the blood in a 96 well plate using a Tecan Evo 96w and incubate with test compounds for 1 h at RT. After this time of incubation, stimulate HWB with both IL6 (206-IL, R&D System) and GM-CSF (PHC2015, Life Technologies) for 15 more minutes. […]
The final concentrations in the assay are the following: 100 μM for compounds, 50 μM for tofacitinib, 0.1 μg/mL IL6, 0.038 μg/mL GM-CSF and 1% DMSO. […] Incubate the antibodies for 1 h in dark at RT, then wash cells 2× and read on Cytometer Macsquant (Miltenyi Biotec). Gate the data on CD4+(lymphocytes) and CD4Low CD33Hi (monocytes), to measure the fluorescence from cells expressing pSTAT3 and pSTAT5 respectively. Analyze the data using FlowJo v_10 and the normalize the median of fluorescence versus maximum and minimum signal to determine the IC50s. […]

[1] = test system: phosphorylation of STAT3 in the H1975 xenograft; assay: pSTAT3 Mouse IVTI (JAK1) Assay, H1975 xenograft; type: in vivo; settings: single oral dose, two hours, n=1
Procedure: pSTAT3 Mouse IVTI (JAK1) Assay
The purpose of this assay is to measure the ability of test compounds to inhibit the phosphorylation of STAT3 (STAT3 activation) in the H1975 xenograft mouse model. Grow H1975 cells according to ATCC specifications at the lowest possible passage number available. Culture and maintain cells in RPMI-1640 supplemented with 10% FBS and incubated at 37° C. in 5% CO2. Harvest cells by standard techniques and mix with BD Biosciences basement membrane matrix (MATRIGEL®) to cell suspension to achieve a 1:1 cell/matrix ratio yielding an inoculation volume of 0.2 mL cell/matrix suspension containing 5e6 cells. […] Time course studies are a single dose administered at the TED70 determined from the dose response study.
Harvest and cut tumors to yield approximately 150-250 mm^3 size fragments and immediately drop into a 12×75 mm tube containing 1 mL of ice cold MSD Tris Lysis buffer (Meso Scale Discovery cat# R60TX-2) and 1×HALT (Thermo Scientific product #1861281). […] Cool plate to RT and measure absorbance at or near 562 nm on Molecular Devices Spectra Max. Protein concentrations for each sample are determined using SoftMax Pro 6.3 software program. After tumor samples are quantitated, freeze lysates at −80° C. in the 96 well polypropylene plate and assay at a later date. […]

JAK2, sequence (O60674 whole entry): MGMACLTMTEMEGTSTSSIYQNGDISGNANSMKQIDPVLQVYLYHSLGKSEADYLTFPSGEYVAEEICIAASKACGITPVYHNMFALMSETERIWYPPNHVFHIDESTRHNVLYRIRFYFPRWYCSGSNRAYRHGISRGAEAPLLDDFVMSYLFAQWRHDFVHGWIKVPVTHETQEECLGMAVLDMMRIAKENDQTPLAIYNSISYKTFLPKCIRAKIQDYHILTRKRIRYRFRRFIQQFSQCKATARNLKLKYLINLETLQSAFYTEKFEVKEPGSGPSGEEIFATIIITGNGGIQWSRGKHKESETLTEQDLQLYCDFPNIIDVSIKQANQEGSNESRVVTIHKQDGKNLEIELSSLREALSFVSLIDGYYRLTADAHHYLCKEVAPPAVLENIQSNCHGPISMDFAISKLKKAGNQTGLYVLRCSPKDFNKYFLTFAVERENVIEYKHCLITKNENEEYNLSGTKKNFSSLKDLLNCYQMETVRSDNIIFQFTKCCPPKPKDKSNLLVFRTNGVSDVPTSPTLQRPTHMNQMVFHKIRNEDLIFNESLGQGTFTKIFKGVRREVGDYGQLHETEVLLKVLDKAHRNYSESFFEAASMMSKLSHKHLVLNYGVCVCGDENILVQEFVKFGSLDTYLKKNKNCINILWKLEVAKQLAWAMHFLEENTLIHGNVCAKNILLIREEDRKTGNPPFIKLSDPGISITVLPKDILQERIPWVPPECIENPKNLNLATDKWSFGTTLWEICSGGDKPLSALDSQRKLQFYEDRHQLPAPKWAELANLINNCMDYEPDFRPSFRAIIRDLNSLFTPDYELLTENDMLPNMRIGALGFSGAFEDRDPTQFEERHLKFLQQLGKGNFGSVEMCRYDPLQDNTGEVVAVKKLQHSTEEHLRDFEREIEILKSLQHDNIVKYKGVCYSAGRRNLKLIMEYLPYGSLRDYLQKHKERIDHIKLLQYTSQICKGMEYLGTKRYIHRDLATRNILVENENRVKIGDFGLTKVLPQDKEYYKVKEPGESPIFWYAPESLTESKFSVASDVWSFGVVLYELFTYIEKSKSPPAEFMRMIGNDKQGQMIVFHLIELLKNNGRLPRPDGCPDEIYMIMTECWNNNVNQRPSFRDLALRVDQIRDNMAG

Compound: Cc1cc(Nc2cc(O[C@H]3CC[C@@H](NC[C@@H](O)C(F)(F)F)CC3)cc3c2ncn3C)nn1C [Example 1, (2R)-3-{[cis-4-({4-[(1,5-Dimethyl-1H-pyrazol-3-yl)amino]-1-methyl-1H-benzimidazol-6-yl}oxy)cyclohexyl]amino}-1,1,1-trifluoropropan-2-ol]
- IC50 (JAK2): 13 ± 3.2 µM
- TEC50 (plasma concentration to achieve 50% pSTAT3 inhibition) [1]: 11.1 μM
- TED50 (dose necessary to achieve 50% pSTAT3 inhibition) [1]: 35 mg/kg
